Legend:
Assay type in all cases: in vivo
[1] = system: directly sowed Oryza sativa; experiment: Test Example 3: effect on crop by application to foliage (Wagner pot, water depth 0.1-0.5 cm); details: Nineteenth Table; application to foliage; application herbicide amount 320 g/ha
How it was run: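 Grading uses six bands of herbicidal ratio, from 0 (≤5%, almost no effect) to 5 (≥90%, almost completely withered). Treatment was a stem-and-leaf spray of diluted emulsion at a fixed g/ha on 14-day-old plants; evaluation after three weeks.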

Chenopodium album = experiment: Test Example 4: herbicidal effect by application to foliage (diluvial soil, plastic box); details: 320 g/ha; for herbicidal effect, O (Chenopodium album): application to foliage
How it was run: (§1)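 Scores run from 0 (herbicidal ratio ≤5%) to 5 (≥90%, almost fully withered) and were assessed three weeks after foliar spraying. Seedlings had been raised for 14 days at 25-30° C in sterilized diluvial soil before treatment, with the emulsion diluted in water to the stated g/ha dose.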

Amaranthus retroflexus = experiment: as above; details: 320 g/ha; for herbicidal effect, N (Amaranthus retroflexus): application to foliage
How it was run: as §1

Setaria viridis = experiment: as above; details: 320 g/ha; for herbicidal effect, G (Setaria viridis): application to foliage
How it was run: as §1

Abutilon theophrasti = experiment: as above; details: 320 g/ha; for herbicidal effect, M (Abutilon theophrasti): application to foliage
How it was run: as §1

Apera spica-venti. = experiment: as above; details: 320 g/ha; for herbicidal effect, L (Apera spica-venti.): application to foliage
How it was run: as §1

[2] = system: Echinochloa crus-galli var. crus-galli; experiment: as above; details: 320 g/ha; for herbicidal effect, H (Echinochloa crus-galli var. crus-galli): application to foliage
How it was run: as §1

Veronica persica = experiment: as above; details: 320 g/ha; for herbicidal effect, R (Veronica persica): application to foliage
How it was run: as §1

Lolium multiflorum Lam. = experiment: as above; details: 320 g/ha; for herbicidal effect, K (Lolium multiflorum Lam.): application to foliage
How it was run: as §1

Alopecurus myosuroides = experiment: as above; details: 320 g/ha; for herbicidal effect, J (Alopecurus myosuroides): application to foliage
How it was run: as §1

Galium spurium = experiment: as above; details: 320 g/ha; for herbicidal effect, Q (Galium spurium): application to foliage
How it was run: as §1

Avena fatua = experiment: as above; details: 320 g/ha; for herbicidal effect, I (Avena fatua): application to foliage
How it was run: as §1

Digitaria ciliaris = experiment: as above; details: 320 g/ha; for herbicidal effect, F (Digitaria ciliaris): application to foliage
How it was run: as §1

Stellaria media = experiment: as above; details: 320 g/ha; for herbicidal effect, P (Stellaria media): application to foliage
How it was run: as §1

Glycine max = experiment: Test Example 4: effect on crop by application to foliage (diluvial soil, plastic box); details: 320 g/ha; for effect on crop, c (Glycine max): application to foliage
How it was run: as §1

Zea mays = experiment: as above; details: 320 g/ha; for effect on crop, b (Zea mays): application to foliage
How it was run: as §1

Brassica campestris L. = experiment: as above; details: 320 g/ha; for effect on crop, g (Brassica campestris L.): application to foliage
How it was run: as §1

[3] = system: directly sowed Oryza sativa; experiment: as above; details: 320 g/ha; for effect on crop, d (directly sowed Oryza sativa): application to foliage
How it was run: as §1

Triticum aestivum = experiment: as above; details: 320 g/ha; for effect on crop, e (Triticum aestivum): application to foliage
How it was run: as §1

[4] = system: Beta vulgaris ssp. vulgaris; experiment: as above; details: 320 g/ha; for effect on crop, f (Beta vulgaris ssp. vulgaris): application to foliage
How it was run: as §1

Row | Compound | b (effect on crop grade) [1] | herbicidal effect, O (Chenopodium album) (Chenopodium album) | herbicidal effect, N (Amaranthus retroflexus) (Amaranthus retroflexus) | herbicidal effect, G (Setaria viridis) (Setaria viridis) | herbicidal effect, M (Abutilon theophrasti) (Abutilon theophrasti) | herbicidal effect, L (Apera spica-venti.) (Apera spica-venti.) | herbicidal effect, H (Echinochloa crus-galli var. crus-galli) [2] | herbicidal effect, R (Veronica persica) (Veronica persica) | herbicidal effect, K (Lolium multiflorum Lam.) (Lolium multiflorum Lam.) | herbicidal effect, J (Alopecurus myosuroides) (Alopecurus myosuroides) | herbicidal effect, Q (Galium spurium) (Galium spurium) | herbicidal effect, I (Avena fatua) (Avena fatua) | herbicidal effect, F (Digitaria ciliaris) (Digitaria ciliaris) | herbicidal effect, P (Stellaria media) (Stellaria media) | effect on crop, c (Glycine max) (Glycine max) | effect on crop, b (Zea mays) (Zea mays) | effect on crop, g (Brassica campestris L.) (Brassica campestris L.) | effect on crop, d (directly sowed Oryza sativa) [3] | effect on crop, e (Triticum aestivum) (Triticum aestivum) | effect on crop, f (Beta vulgaris ssp. vulgaris) [4] | further results
1 | Cn1nnnc1NC(=O)c1ccc(C(F)(F)F)n2c(N3CCSCC3)nnc12 [2-078] | 4 (Herbicidal ratio of 70% or more and less than 90%) | 5 (Herbicidal ratio of 90% or more (almost completely withered)) | 5 (Herbicidal ratio of 90% or more (almost completely withered)) | 5 (Herbicidal ratio of 90% or more (almost completely withered)) | 5 (Herbicidal ratio of 90% or more (almost completely withered)) | 5 (Herbicidal ratio of 90% or more (almost completely withered)) | 5 (Herbicidal ratio of 90% or more (almost completely withered)) | 5 (Herbicidal ratio of 90% or more (almost completely withered)) | 4 (Herbicidal ratio of 70% or more and less than 90%) | 4 (Herbicidal ratio of 70% or more and less than 90%) | 4 (Herbicidal ratio of 70% or more and less than 90%) | 3 (Herbicidal ratio of 40% or more and less than 70%) | 5 (Herbicidal ratio of 90% or more (almost completely withered)) | 5 (Herbicidal ratio of 90% or more (almost completely withered)) | 1 (Herbicidal ratio of 5% or more and less than 20%) | 4 (Herbicidal ratio of 70% or more and less than 90%) | 5 (Herbicidal ratio of 90% or more (almost completely withered)) | 4 (Herbicidal ratio of 70% or more and less than 90%) | 2 (Herbicidal ratio of 20% or more and less than 40%) | 5 (Herbicidal ratio of 90% or more (almost completely withered)) | –
2 | C=CCSc1nnc2c(C(=O)Nc3nnnn3C)ccc(C(F)(F)F)n12 [2-102] | 1 (Herbicidal ratio of 5% or more and less than 20%) | 5 (Herbicidal ratio of 90% or more (almost completely withered)) | 5 (Herbicidal ratio of 90% or more (almost completely withered)) | 4 (Herbicidal ratio of 70% or more and less than 90%) | 5 (Herbicidal ratio of 90% or more (almost completely withered)) | 3 (Herbicidal ratio of 40% or more and less than 70%) | 5 (Herbicidal ratio of 90% or more (almost completely withered)) | 5 (Herbicidal ratio of 90% or more (almost completely withered)) | 1 (Herbicidal ratio of 5% or more and less than 20%) | 0 (Herbicidal ratio of 5% or less (almost no effect)) | 3 (Herbicidal ratio of 40% or more and less than 70%) | 1 (Herbicidal ratio of 5% or more and less than 20%) | 5 (Herbicidal ratio of 90% or more (almost completely withered)) | 5 (Herbicidal ratio of 90% or more (almost completely withered)) | 0 (Herbicidal ratio of 5% or less (almost no effect)) | 1 (Herbicidal ratio of 5% or more and less than 20%) | 3 (Herbicidal ratio of 40% or more and less than 70%) | 4 (Herbicidal ratio of 70% or more and less than 90%) | 1 (Herbicidal ratio of 5% or more and less than 20%) | 5 (Herbicidal ratio of 90% or more (almost completely withered)) | –
3 | C=CCN(C)c1nnc2c(C(=O)Nc3nnnn3C)ccc(C(F)(F)F)n12 [2-100] | 3 (Herbicidal ratio of 40% or more and less than 70%) | 5 (Herbicidal ratio of 90% or more (almost completely withered)) | 5 (Herbicidal ratio of 90% or more (almost completely withered)) | 4 (Herbicidal ratio of 70% or more and less than 90%) | 5 (Herbicidal ratio of 90% or more (almost completely withered)) | 4 (Herbicidal ratio of 70% or more and less than 90%) | 5 (Herbicidal ratio of 90% or more (almost completely withered)) | 5 (Herbicidal ratio of 90% or more (almost completely withered)) | 3 (Herbicidal ratio of 40% or more and less than 70%) | 2 (Herbicidal ratio of 20% or more and less than 40%) | 5 (Herbicidal ratio of 90% or more (almost completely withered)) | 3 (Herbicidal ratio of 40% or more and less than 70%) | 5 (Herbicidal ratio of 90% or more (almost completely withered)) | 5 (Herbicidal ratio of 90% or more (almost completely withered)) | 0 (Herbicidal ratio of 5% or less (almost no effect)) | 5 (Herbicidal ratio of 90% or more (almost completely withered)) | 5 (Herbicidal ratio of 90% or more (almost completely withered)) | 4 (Herbicidal ratio of 70% or more and less than 90%) | 0 (Herbicidal ratio of 5% or less (almost no effect)) | 5 (Herbicidal ratio of 90% or more (almost completely withered)) | –
4 | CC(C)Nc1nnc2c(C(=O)Nc3nnnn3C)ccc(C(F)(F)F)n12 [2-066] | 3 (Herbicidal ratio of 40% or more and less than 70%) | – | – | – | – | – | – | – | – | – | – | – | – | – | – | – | – | – | – | – | O (Chenopodium album) herbicidal effect grade (Chenopodium album; foliage application): 5 (Herbicidal ratio of 90% or more (almost completely withered)); N (Amaranthus retroflexus) herbicidal effect grade (Amaranthus retroflexus; foliage application): 5 (Herbicidal ratio of 90% or more (almost completely withered)); G (Setaria viridis) herbicidal effect grade (Setaria viridis; foliage application): 5 (Herbicidal ratio of 90% or more (almost completely withered)); M (Abutilon theophrasti) herbicidal effect grade (Abutilon theophrasti; foliage application): 4 (Herbicidal ratio of 70% or more and less than 90%); L (Apera spica-venti.) herbicidal effect grade (Apera spica-venti.; foliage application): 3 (Herbicidal ratio of 40% or more and less than 70%); H (Echinochloa crus-galli var. crus-galli) herbicidal effect grade ([2]; foliage application): 5 (Herbicidal ratio of 90% or more (almost completely withered)); R (Veronica persica) herbicidal effect grade (Veronica persica; foliage application): 5 (Herbicidal ratio of 90% or more (almost completely withered)); K (Lolium multiflorum Lam.) herbicidal effect grade (Lolium multiflorum Lam.; foliage application): 3 (Herbicidal ratio of 40% or more and less than 70%); J (Alopecurus myosuroides) herbicidal effect grade (Alopecurus myosuroides; foliage application): 3 (Herbicidal ratio of 40% or more and less than 70%); Q (Galium spurium) herbicidal effect grade (Galium spurium; foliage application): 3 (Herbicidal ratio of 40% or more and less than 70%); I (Avena fatua) herbicidal effect grade (Avena fatua; foliage application): 2 (Herbicidal ratio of 20% or more and less than 40%); F (Digitaria ciliaris) herbicidal effect grade (Digitaria ciliaris; foliage application): 5 (Herbicidal ratio of 90% or more (almost completely withered)); P (Stellaria media) herbicidal effect grade (Stellaria media; foliage application): 5 (Herbicidal ratio of 90% or more (almost completely withered)); c (Glycine max) effect on crop grade (Glycine max; foliage application): 1 (Herbicidal ratio of 5% or more and less than 20%); b (Zea mays) effect on crop grade (Zea mays; foliage application): 4 (Herbicidal ratio of 70% or more and less than 90%); g (Brassica campestris L.) effect on crop grade (Brassica campestris L.; foliage application): 4 (Herbicidal ratio of 70% or more and less than 90%); d (directly sowed Oryza sativa) effect on crop grade ([3]; foliage application): 4 (Herbicidal ratio of 70% or more and less than 90%); e (Triticum aestivum) effect on crop grade (Triticum aestivum; foliage application): 3 (Herbicidal ratio of 40% or more and less than 70%); f (Beta vulgaris ssp. vulgaris) effect on crop grade ([4]; foliage application): 5 (Herbicidal ratio of 90% or more (almost completely withered))

Source: patent publication US9708314B2, “Heterocyclic amide compound” (NISSAN CHEMICAL INDUSTRIES, LTD., priority 2013, dated 2017)
